From patent US8828942B2, “Means for treating synucleinopathies” (Affiris AG, priority 2009, dated 2014)
“Also recorded” adds a separate entry of the source.

Key:
[1] = tested on: monoclonal antibody 12-9-9; experiment: In vitro binding assay (ELISA) with monoclonal antibody 12-9-9; parameters: species or system mouse; key to Binding: 0: no binding to 12-9-9 detectable in ELISA; 1: weak binding: binding of mimotope weaker compared to the minimal original sequence p5436; 2: strong binding: binding of mimotope similar to the minimal original sequence p5436; details: for Binding: binding capacity to 12-9-9 in ELISA, peptide-BSA coated (1 μM), compared with p5436; for detection/binding by monoclonal antibody 12-9-9 in ELISA: result in words
Excerpt: A monoclonal antibody derived from the fusion “AFFiRiS 6”: Balb/c mice (Charles River) were immunized with original alpha-synuclein epitope LGKNEEGAPQ-C (SEQ ID NO:3) coupled to BTG (bovine thyroglobuline) and CFA (complete Freund's adjuvant; first injection) as well as IFA (incomplete Freund's adjuvant; 3 booster injections) as adjuvant. LGKNEEGAPQ-peptide-specific (SEQ ID NO: 203) antibody-producing hybridomas are detected by ELISA (LGKNEEGAPQC-peptide-coated (SEQ ID NO: 3)ELISA plates). Human alpha-synuclein (recombinant protein, p4446) is used as positive control peptide: hybridomas recognizing the recombinant protein immobilized on ELISA plates are included because they are binding both peptide and full length alpha-synuclein specifically. […] The Hybridoma clone (12-9-9; IgG1, kappa) was analysed for specific detection of the natural human alpha-synuclein epitope LGKNEEGAPQ. (SEQ ID NO: 203). 12-9-9 recognizes the injected epitope as well as full length alpha-synuclein protein (recombinant protein; obtained from rPeptide, Bogart, Ga., USA) in ELISA (see FIG. 2). […] Thus the minimal required epitope for binding has been defined as KNEEGAP (SEQ ID NO: 139).
Peptides derived from Phage Display as well as N-terminally truncated variants thereof were coupled to BSA and bound to ELISA plates (1 μM) and subsequently incubated with the monoclonal antibody that was used for the screening procedure to analyse binding capacity of identified peptides (see FIG. 4).

[2] = tested on: monoclonal antibody 12-9-9; experiment: In vitro inhibition assay (ELISA); assay type: binding, mouse; parameters: key: 0: no competition of 12-9-9 detectable in ELISA; 1: weak competition: competition of mimotope weaker compared to the minimal original sequence p5436; 2: strong competition: competition of mimotope similar to the minimal original sequence p5436; details: competition capacity in ELISA, peptide 400 μg/ml to 3 μg/ml, plates coated with p5436 and p4446
Procedure: Different amounts of peptides (concentrations ranging from 400 μg/ml to 3 μg/ml (serial dilutions), derived from Phage Display were incubated with the monoclonal antibody that was used for the screening procedure. Peptides diminishing subsequent binding of the antibody to the original human alpha-synuclein epitope (p5436) and the human alpha-synuclein protein (p4446) coated on ELISA plates were considered as inhibiting in this assay.

[3] = In vivo testing of mimotopes: serum titer against injected peptide (ELISA); details: mice, 30 μg peptide coupled to KLH, alum, s.c.; titer by ELISA as OD halfmax
Procedure: (§1) Inhibiting as well as non-inhibiting peptides were coupled to KLH and injected into mice (wildtype C57/B16 or BalbC mice; subcutaneous injection into the flank) together with an appropriate adjuvant (aluminium hydroxide). Animals were vaccinated 3 times in biweekly intervals and sera were taken biweekly as well. Titers to injected peptides as well as to an irrelevant peptide were determined with every serum. Titers against the recombinant human alpha-synuclein protein and recombinant human beta-synuclein were determined starting with Serum 2 respectively. In general sera were analysed by reaction against peptides coupled to Bovine Serum Albumin (BSA) and recombinant full length proteins which were immobilised on ELISA plates. Titers were determined using anti mouse IgG specific antibodies. For examples of immunogenicity against injected peptide and alpha-synuclein see Table 5 and Table 6.
(§2) Female C57/B16 mice or BalbC, 5-6 mice per group, were subcutaneously immunized with 30 μg peptide coupled to KLH. Control groups were injected with PBS or the original epitope. As adjuvant alum was used. The peptides administered were all able to bind to monoclonal antibodies specifically binding aa100-109 of human alpha-synuclein although some of the peptides did inhibit the binding of the original epitope to its parental antibody in vitro only weakly (in an in vitro inhibition assay). The in vitro ELISA assay to determine the antibody titer was performed with sera of single mice (see Tab. 5) after each vaccination in a two week interval. The wells of the ELISA plate were coated with mimotope-BSA conjugates. The positive control was performed by reaction of the parental antibody with the respective mimotope-BSA conjugate. The detection was performed with anti-mouse IgG. Additionally, recombinant proteins were immobilised on ELISA plates and sera reacted accordingly. For all mimotopes tested in C57/B16 mice or BalbC, antibodies reacting to the individual injected peptide could be detected after repeated vaccination. Although not all mice induced higher titer against alpha-synuclein (see tab. 5 for examples).

[4] = tested on: recombinant human alpha-synuclein protein; experiment: In vivo testing of mimotopes: serum titer against alpha-synuclein (ELISA); details: mice immunized with peptide-KLH, alum, OD halfmax
Procedure: as §1, §2

Sequence	Binding [1]	detection/binding by monoclonal antibody 12-9-9 in ELISA [1]	Competition [2]	Titer in animals OD halfmax injected pep. [3]	class of immunogenicity: a Syn [4]
LGKNEEGAPC [p5402, reference compound]	2	retained full binding capacities	2	20000	2 (peptides inducing an immune response with OD halfmax higher than 1000.)
RNEEGAPC [p5443, mimotope]	2		2	9000	1 (peptides inducing an immune response with OD halfmax between 1000 and 51.)
RSEEGAPC [p5590, mimotope]	2		1		1 (peptides inducing an immune response with OD halfmax between 1000 and 51.)
RNDEGAPC [p5587, mimotope]	2		2		1 (peptides inducing an immune response with OD halfmax between 1000 and 51.)
MGKGEEGYPQC [p4454, reference compound]	2			17000	1 (peptides inducing an immune response with OD halfmax between 1000 and 51.)
KNDEGAPC [p5445, mimotope]	2		2	26000	2 (peptides inducing an immune response with OD halfmax higher than 1000.)
APSWKGEC [p5556, mimotope]	2		1		0 (peptides inducing no immune response or a very low immune response with OD halfmax around 50 or lower.)
KNEEGAPC [p5436, reference compound]	2	detected similarly; also recorded: retained full binding capacities	2	10000	2 (peptides inducing an immune response with OD halfmax higher than 1000.)
KNAEGAPC [p5439, mimotope]	2	detected similarly	1	8000	1 (peptides inducing an immune response with OD halfmax between 1000 and 51.)
